In ChEMBL document CHEMBL1201862, “PubChem BioAssay data set” (2004):
Calls of active or inactive are those of the source.

Columns and labels:
[1] = biological target: T1, Rac GTPase-activating protein 1 (Homo sapiens, UniProt Q9H0H5); assay: MgcRacGAP GTPase-activating activity inhibitors, confirmation, biochemical, ADP Hunter fluorescence, primary and confirmatory (AID 624330); format: functional
T1 sequence (Q9H0H5 whole entry): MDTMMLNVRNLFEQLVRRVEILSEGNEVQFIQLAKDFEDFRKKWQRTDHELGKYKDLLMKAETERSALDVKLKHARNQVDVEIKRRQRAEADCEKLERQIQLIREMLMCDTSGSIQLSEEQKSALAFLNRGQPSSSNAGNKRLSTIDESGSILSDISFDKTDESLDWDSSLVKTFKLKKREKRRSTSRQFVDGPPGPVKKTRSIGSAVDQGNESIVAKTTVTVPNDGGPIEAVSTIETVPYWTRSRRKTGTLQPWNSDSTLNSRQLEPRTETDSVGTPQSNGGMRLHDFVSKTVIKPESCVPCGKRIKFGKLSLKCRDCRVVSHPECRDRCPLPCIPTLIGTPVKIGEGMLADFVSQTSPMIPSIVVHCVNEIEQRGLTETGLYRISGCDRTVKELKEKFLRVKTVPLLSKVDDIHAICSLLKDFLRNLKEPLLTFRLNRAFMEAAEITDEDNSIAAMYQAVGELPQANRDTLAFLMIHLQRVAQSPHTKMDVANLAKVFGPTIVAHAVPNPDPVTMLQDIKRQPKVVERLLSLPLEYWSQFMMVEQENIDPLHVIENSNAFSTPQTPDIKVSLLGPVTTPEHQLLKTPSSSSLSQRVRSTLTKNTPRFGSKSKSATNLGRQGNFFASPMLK

[2] = biological target: Matrix metalloproteinase-14 (Homo sapiens, UniProt P50281); assay: Dose Response confirmation of uHTS hits for a small molecule inhibitors of MT1-MMP activation in a fluorescence assay set 2.; format: functional
Protein skinhead-1 = biological target: T2, Protein skinhead-1 (Caenorhabditis elegans, UniProt P34707); format: functional
T2 sequence (P34707 whole entry): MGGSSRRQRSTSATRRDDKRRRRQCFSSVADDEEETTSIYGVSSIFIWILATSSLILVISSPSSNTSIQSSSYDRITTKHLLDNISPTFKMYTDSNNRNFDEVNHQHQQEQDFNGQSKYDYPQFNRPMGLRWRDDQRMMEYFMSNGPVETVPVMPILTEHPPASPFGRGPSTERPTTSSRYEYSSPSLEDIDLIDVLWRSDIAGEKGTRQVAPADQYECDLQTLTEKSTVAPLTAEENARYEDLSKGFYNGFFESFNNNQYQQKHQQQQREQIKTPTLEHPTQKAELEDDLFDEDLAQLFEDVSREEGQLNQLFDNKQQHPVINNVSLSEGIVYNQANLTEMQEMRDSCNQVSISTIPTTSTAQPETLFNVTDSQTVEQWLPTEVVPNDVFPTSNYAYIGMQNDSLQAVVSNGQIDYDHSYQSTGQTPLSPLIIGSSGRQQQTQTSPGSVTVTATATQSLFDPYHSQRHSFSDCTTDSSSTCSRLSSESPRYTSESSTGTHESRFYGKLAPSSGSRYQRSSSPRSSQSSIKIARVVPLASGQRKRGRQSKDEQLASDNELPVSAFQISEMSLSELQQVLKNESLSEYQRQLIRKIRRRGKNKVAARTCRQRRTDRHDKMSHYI

[3] = Luminescence Cell-Based Dose Response to Identify Activators of 5'UTR Stem-Loop Driven Prion Protein mRNA Translation in H4-C Neuroglioblastoma Cells. [Related pubchem assays: 1829 (Project Summary), 1814 (Primary HTS)]; format: functional
[4] = Luminescence Cell-Based Dose Confirmation to Identify Activators of 5'UTR Stem-Loop Driven Alpha-Synuclein mRNA Translation in H4 Neuroglioblastoma Cells. [Related pubchem assays: 1829 (Project Summary), 1814 (Primary HTS)]; format: functional
[5] = biological target: ATP-dependent translocase ABCB1 (Homo sapiens, UniProt P08183); assay: ABCB1 efflux pump inhibitor potency, dose response, Jurkat-DNR cells, JC-1, flow cytometry (AID 1689); format: functional
Chain of ATP-dependent translocase ABCB1 (P08183 whole entry): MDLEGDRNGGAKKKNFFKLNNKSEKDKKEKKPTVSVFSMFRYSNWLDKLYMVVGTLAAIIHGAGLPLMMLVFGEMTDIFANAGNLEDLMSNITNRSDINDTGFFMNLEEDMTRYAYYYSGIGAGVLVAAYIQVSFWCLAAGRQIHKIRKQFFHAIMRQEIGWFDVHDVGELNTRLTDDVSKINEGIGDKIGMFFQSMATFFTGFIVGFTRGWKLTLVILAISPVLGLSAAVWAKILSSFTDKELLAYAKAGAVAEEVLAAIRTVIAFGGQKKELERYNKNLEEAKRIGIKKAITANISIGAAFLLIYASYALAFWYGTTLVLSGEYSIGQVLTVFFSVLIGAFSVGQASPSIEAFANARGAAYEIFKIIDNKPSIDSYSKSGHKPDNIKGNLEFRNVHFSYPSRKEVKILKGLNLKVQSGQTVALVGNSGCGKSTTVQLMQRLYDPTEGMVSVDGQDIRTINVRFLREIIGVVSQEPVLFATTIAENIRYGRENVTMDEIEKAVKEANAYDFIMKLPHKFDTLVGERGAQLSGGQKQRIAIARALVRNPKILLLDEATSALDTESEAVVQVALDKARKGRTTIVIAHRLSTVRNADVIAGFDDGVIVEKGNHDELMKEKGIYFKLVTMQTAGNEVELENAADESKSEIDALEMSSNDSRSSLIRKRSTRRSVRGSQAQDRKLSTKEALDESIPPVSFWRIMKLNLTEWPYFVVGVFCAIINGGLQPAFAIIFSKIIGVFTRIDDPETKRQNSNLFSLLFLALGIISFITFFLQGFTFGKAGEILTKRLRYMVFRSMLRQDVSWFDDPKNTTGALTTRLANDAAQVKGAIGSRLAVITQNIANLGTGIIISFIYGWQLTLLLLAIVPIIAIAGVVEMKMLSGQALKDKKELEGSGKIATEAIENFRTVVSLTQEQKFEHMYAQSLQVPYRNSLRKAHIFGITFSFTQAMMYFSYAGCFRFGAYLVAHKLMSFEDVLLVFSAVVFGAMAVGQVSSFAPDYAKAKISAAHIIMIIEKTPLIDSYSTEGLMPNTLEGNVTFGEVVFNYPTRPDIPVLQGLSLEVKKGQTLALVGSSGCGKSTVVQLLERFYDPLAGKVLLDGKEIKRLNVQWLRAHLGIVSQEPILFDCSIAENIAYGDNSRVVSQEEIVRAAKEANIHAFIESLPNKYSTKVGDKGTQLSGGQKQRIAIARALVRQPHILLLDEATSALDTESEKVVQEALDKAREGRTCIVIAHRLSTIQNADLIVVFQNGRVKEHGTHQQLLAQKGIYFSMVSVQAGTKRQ

[6] = biological target: Broad substrate specificity ATP-binding cassette transporter ABCG2 (Homo sapiens, UniProt Q9UNQ0); assay: ABCG2 efflux pump inhibitors, dose response, Ig-MXP3 cells, flow cytometry (AID 1690); format: functional
Chain of Broad substrate specificity ATP-binding cassette transporter ABCG2 (Q9UNQ0 whole entry): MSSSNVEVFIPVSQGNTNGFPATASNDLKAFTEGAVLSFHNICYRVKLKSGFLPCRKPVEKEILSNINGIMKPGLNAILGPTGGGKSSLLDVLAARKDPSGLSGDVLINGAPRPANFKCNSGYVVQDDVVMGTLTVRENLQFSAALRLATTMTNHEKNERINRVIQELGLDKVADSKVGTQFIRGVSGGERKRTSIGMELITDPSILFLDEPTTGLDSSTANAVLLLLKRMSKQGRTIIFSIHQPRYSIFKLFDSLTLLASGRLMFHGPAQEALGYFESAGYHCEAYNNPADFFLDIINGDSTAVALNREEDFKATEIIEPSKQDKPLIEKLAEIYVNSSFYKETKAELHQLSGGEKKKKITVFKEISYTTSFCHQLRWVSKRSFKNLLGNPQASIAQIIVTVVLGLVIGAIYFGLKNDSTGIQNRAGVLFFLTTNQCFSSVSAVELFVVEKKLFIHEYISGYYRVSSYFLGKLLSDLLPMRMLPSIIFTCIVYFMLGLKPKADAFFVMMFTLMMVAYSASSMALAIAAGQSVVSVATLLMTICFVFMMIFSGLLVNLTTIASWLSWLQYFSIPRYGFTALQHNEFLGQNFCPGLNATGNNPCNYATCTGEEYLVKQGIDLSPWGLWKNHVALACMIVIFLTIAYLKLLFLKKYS

[7] = Luminescence Cell-Based Dose Response HTS to Identify Activators of Luciferase Translation or Activity in H4 […] Cells. [Related pubchem assays: 1829 (Project Summary), 1814 (Primary HTS)]; format: functional
H4 = assay: Luminescence Cell-Based Dose Response HTS to Identify Activators of 5'UTR Stem-Loop Driven Prion Protein mRNA Translation in H4 Neuroglioblastoma Cells. [Related pubchem assays: 1829 (Project Summary), 1814 (Primary HTS)]; format: functional; conditions: Homo sapiens
[8] = Luminescence Cell-Based Dose Response to Identify Activators of Luciferase Translation or Activity in H4-C Neuroglioblastoma Cells. [Related pubchem assays: 1829 (Project Summary), 1814 (Primary HTS)]; format: functional
[9] = control 3'UTR Renilla luciferase suppression, dose response, counter-screen for Shn3 inhibitor project, cell-based, Clone20-Shn3RL, cherry-picked (AID 624133); format: functional
[10] = Shn3 3'UTR reporter inhibitors, dose response, cell-based, Clone20 osteoblasts, firefly luciferase, cherry-picked (AID 624132); format: functional;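 note: firefly luciferase luminescence from reporter carrying the Shn3 3'UTR in osteoblasts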
HEK293 [11] = assay: cells; conditions: Homo sapiens
[12] = HepG2 cell cytotoxicity, dose response, cytotoxicity control for Shn3 inhibitor project, CellTiter-Glo, cherry-picked (AID 624134); format: functional, cell-based
Protein RecA = biological target: T3, Protein RecA (Mycobacterium tuberculosis, UniProt P9WHJ3); assay: Fluorescence Cell-Free Homogeneous Dose Retest to Identify Inhibitors of RecA-Intein Splicing Activity. [Related pubchem assays (depositor defined):AID2097, AID2223, AID489010, AID492950]; format: functional
T3 sequence (P9WHJ3 whole entry): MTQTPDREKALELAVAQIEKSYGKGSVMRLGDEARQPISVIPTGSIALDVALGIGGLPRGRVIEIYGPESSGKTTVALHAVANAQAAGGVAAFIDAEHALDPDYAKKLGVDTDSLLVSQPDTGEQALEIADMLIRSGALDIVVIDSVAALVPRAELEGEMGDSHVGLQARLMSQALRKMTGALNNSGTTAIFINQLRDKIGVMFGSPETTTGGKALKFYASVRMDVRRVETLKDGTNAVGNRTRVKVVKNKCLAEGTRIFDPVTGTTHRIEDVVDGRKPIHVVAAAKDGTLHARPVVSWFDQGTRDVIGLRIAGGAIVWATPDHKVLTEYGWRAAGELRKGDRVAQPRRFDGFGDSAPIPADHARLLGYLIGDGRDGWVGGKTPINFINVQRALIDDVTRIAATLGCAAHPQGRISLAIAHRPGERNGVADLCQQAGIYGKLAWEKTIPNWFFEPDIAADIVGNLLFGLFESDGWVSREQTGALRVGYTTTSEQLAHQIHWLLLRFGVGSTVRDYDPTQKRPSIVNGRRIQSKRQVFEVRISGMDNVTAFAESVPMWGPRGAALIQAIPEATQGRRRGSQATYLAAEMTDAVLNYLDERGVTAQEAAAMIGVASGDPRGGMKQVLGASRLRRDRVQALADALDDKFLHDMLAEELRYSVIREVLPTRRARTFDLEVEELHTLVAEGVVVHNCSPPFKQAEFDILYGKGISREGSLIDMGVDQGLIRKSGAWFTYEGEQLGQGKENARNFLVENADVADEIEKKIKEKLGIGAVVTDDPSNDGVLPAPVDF

[13] = Fluorescence-based cell-based high throughput dose response assay for inhibitors of the interaction of nucleotide-binding oligomerization domain containing 2 (NOD2) and the receptor-interacting serine-threonine kinase 2 (RIPK2).; format: functional; conditions: Homo sapiens
[14] = biological target: T4, Heat shock factor protein 1 (Mus musculus, UniProt P38532); assay: HSF1 potentiators in luciferase reporter cells, confirmation, cell-based, NIH3T3, luminescence, dose retest (AID 435004); format: functional;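 note: stress induced by proteasome inhibitor MG132 added 30 min after compound; luciferase reporter driven by HSF1 response element in NIH3T3 cells; actives raise luminescence as potentiators of the MG132 stress response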
T4 sequence (P38532 whole entry): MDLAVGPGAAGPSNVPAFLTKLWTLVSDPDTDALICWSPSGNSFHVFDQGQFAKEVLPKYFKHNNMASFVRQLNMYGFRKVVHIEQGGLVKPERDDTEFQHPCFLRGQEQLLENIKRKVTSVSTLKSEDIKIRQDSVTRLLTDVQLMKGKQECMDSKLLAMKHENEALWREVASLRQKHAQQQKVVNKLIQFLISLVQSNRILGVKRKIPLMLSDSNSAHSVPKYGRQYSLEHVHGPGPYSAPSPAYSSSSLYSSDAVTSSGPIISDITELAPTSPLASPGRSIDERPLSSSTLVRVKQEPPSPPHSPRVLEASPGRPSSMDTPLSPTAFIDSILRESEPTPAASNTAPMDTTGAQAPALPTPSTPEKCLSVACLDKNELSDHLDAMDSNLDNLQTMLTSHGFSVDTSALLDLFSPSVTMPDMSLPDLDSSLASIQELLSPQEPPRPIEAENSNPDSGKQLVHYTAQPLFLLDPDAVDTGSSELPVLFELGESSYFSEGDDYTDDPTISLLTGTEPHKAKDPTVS

HEK293 [15] = assay: cells; conditions: Homo sapiens; remark: listed apart in the source
[16] = biological target: ATP-binding cassette sub-family B member 6 (Homo sapiens, UniProt Q9NP58); assay: ABCB6 transporter inhibitors, porphyrin accumulation, dose response, flow cytometry, K562-ABCB6 cells, cherry pick 02 (AID 624487); format: functional; conditions: read-out: EC50_MICROM
Chain of ATP-binding cassette sub-family B member 6 (Q9NP58 whole entry): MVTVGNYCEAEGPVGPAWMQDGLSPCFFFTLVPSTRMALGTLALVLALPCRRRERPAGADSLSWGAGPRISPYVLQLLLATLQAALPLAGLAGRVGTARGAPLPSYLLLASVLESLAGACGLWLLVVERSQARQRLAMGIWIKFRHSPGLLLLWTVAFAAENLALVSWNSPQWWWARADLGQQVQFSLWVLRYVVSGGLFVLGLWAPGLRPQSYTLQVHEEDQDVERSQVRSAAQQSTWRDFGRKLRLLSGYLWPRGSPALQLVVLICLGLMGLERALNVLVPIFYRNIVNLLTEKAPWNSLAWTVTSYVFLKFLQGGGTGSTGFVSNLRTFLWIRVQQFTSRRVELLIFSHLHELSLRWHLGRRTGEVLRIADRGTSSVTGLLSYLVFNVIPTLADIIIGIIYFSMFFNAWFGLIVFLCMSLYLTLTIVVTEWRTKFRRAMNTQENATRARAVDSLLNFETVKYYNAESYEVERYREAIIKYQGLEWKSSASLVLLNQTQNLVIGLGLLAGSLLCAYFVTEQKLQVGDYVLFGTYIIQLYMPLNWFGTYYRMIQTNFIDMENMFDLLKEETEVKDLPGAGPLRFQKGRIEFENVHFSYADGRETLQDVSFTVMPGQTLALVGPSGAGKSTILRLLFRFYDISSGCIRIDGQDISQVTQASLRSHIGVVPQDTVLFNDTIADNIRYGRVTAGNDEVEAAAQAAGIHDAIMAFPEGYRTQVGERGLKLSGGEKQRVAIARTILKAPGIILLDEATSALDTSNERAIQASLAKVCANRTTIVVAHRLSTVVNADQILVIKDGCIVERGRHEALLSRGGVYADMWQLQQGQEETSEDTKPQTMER

[17] = biological target: T5, Replicative DNA helicase DnaB (Mycobacterium tuberculosis, UniProt P9WMR3); assay: DnaB intein splicing inhibitors, dose response, biochemical, cell-free fluorescence (AID 449749); format: functional
T5 sequence (P9WMR3 whole entry): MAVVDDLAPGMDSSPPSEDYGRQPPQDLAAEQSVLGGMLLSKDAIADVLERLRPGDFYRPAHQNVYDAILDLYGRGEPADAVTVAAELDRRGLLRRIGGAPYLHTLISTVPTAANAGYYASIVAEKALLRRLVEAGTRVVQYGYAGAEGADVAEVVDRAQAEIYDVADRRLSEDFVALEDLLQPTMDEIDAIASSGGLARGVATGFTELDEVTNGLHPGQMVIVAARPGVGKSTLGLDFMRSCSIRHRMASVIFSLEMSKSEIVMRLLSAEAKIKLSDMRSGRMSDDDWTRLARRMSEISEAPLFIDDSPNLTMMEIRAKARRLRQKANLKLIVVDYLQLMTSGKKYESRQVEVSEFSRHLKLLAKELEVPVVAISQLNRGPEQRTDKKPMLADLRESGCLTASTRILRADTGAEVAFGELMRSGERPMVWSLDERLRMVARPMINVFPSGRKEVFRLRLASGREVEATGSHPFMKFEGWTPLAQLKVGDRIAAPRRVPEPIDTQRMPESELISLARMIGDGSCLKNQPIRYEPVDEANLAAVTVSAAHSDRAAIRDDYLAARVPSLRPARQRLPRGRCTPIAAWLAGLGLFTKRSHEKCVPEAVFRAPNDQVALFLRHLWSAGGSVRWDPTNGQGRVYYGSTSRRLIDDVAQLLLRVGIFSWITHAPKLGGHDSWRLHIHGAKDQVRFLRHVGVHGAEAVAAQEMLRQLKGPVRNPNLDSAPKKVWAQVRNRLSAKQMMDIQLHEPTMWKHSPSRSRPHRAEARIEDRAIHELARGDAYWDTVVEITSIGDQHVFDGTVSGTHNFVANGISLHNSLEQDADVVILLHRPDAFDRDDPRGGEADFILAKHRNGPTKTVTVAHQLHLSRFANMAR

[18] = biological target: FAD-linked sulfhydryl oxidase ALR (Homo sapiens, UniProt P55789); assay: inhibitors of human ALR sulfhydryl oxidase, dose response, biochemical, H2O2 detection, luminescence, cherry-pick (AID 493248)
Chain of FAD-linked sulfhydryl oxidase ALR (P55789 whole entry): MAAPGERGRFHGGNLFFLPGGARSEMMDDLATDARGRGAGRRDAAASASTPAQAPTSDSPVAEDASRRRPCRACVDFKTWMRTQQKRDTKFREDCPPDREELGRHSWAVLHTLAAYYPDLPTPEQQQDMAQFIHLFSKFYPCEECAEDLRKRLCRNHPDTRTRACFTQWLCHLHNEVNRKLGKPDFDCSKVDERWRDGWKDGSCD

CN(C)/C=C/c1oc2ccc(O)cc2c1[N+](=O)[O-]
inactive: IC50 [2] 26.2 µM
active: IC50 [1] 14 µM

O=[N+]([O-])c1ccccc1-c1nc(-c2ccc(Br)o2)no1
> 120 µM (not active): EC50 (H4)
active: EC50 [3] 0.302 µM | EC50 [4] 0.252 µM | EC50 [6] 4.88 µM | EC50 [7] < 0.1 µM | EC50 [8] 0.364 µM
inactive: IC50 (Protein skinhead-1) 69.1 µM | EC50 [5] 28.2 µM

Cc1cccc(C)c1NC(=O)c1nc(S(=O)(=O)Cc2ccccc2)ncc1Cl
inactive: EC50 (HEK293 [11]) > 59.6 µM | EC50 (HEK293 [15]) > 59.6 µM
active: AC50 [9] 10.6 µM | AC50 [10] 4.33 µM | AC50 [12] 22.9 µM | EC50 (Protein RecA) 6.63 µM | IC50 [13] 4.11 µM | EC50 [14] 9.13 µM | EC50 [16] 38.1 µM | AC50 [17] 4.34 µM | AC50 [18] 1.74 µM
